Laboratory results from patent US12173306B2, “Codon-optimized reduced-size ATP7A CDNA and uses for treatment of copper transport disorders” (The United States of America, as represented by the …, priority 2015, dated 2024).

Test system: C57BL/6-Atp7a^mo-br mice (mo-br mice)
Experiment: Survival in a mouse model of Menkes disease (mo-br mice)
Format: in vivo
Conditions: single treatments, FIG. 5
From the text: FIG. 5 is a graph showing survival of mo-br mice treated with rAAV9-co-rsATP7A (AAV9) and copper histidinate, untreated (UT), treated with AAV9co alone, or treated with copper histidinate alone.
FIG. 6 is a graph showing survival to weaning (dark gray bars) or prolonged survival (light gray bars) in untreated (UT) mice, mice treated with AAV5-rsATP7A and copper histidinate (AAV5+Cu), AAVrh10-rsATP7A and copper histidinate (AAVrh10+copper), AAV9-rsATP7A and copper (AAV9+Cu), and AAV9 co-rsATP7A and copper (AAV9co+Cu). rsATP7A is reduced-size ATP7A cDNA (native sequence (non-codon-optimized)).
The AAV9 co-rsATP7A described in Example 2 was administered to C57BL/6-Atp7a^mo-br mice (mo-br mice) by intracerebroventricular injection. The mice were injected bilaterally on day two of life with 1.6×10^9 vg in 5 μl of lactated Ringer's solution. Some of the mice were also treated with copper histidinate (15 μg) by subcutaneous injection during the first week of life (5 μg, d4-6). About 70% of the mice treated with combination AAV9 co-rsATP7A and copper histidinate survived at least 100 days (FIG. 5).
Different AAV serotypes were also tested for efficacy in mo-br mice.

copper histidinate
survival time (did not survive past): ≤ 28 days
